Experimental data taken from US9375457B2, “Composition comprising Rhizoma coptidis, Cortex phellodendri and Fructus gardeniae and for treating neurodegenerative diseases” (Hong Kong Baptist University, priority 2013, dated 2016).

System: Aβ1-40 and Aβ1-42 in brain of TgCRND8 mice
Assay: Aβ ELISA of serially extracted brain fractions of TgCRND8 mice
Format: in vivo
Settings: oral, 25 mg/kg per day
Excerpt: All animal handling experiments were approved by the Hong Kong Baptist University Committee on the Use of Human and Animal Subjects in Teaching and Research (HASC, approval #: 12-13/0030). TgCRND8 mice expressing human APP with Swedish (K670N/M671L) and Indiana (V717F) mutations were used to evaluate the effect of baicalein on Aβ. Heterozygous TgCRND8 mice on a C57BL/6J background were used to breed a colony of experimental animals. The TgCRND8 mouse is an early onset model of AD with visible Aβ deposits in the brains of the animals starting from 3 months of age as described in Chishti M A, Yang D S, Janus C, Phinney A L, Home P, Pearson J, Strome R, Zuker N, Loukides J, French J, Turner S, Lozza G, Grilli M, Kunicki S, Morissette C, Paquette J, Gervais F, Bergeron C, Fraser P E, Carlson G A, George-Hyslop P S, Westaway D. (2001) Early-onset amyloid deposition and cognitive deficits in transgenic mice expressing a double mutant form of amyloid precursor protein 695. J Biol Chem 276: 21562-21570. The animals are housed in a controlled environment under a 12/12 hours light/dark cycle. They are allowed free access to food and water. The oral administration of baicalein (25 mg/kg/d) is commenced at 2 months of age and ended at 5 months before being killed. A single dose (25 mg/kg/d) of baicalein is tested in animal study as no difference in baicalein levels in the brain between doses of 25 and 50 mg/kg/d is found in our pilot study. Control mice orally gavaged with tap water only for the same administration period. At the conclusion of the treatment period, mice were deeply anesthetized by chloral hydrate and perfused with phosphate buffered saline (PBS). The brains were then dissected and processed for Aβ immunostaining
To detect differences in the level of APP metabolic products among treatment groups, the levels of Aβ, F1-APP, pAPPThr668, CTFs, sAPPα and sAPPβ-sw are measured after a 3-step sequential extraction using Tris buffered saline (TBS) (pH 7.4), 1% Triton X-100/TBS (TBSX) and formic acid (FA) methods as described in Youmans K L, Leung S, Zhang J, Maus E, Baysac K, Bu G, Vassar R, Yu C, LaDu M J. (2011) Amyloid-β42 alters apolipoprotein E solubility in brains of mice with five familial AD mutations. J Neurosci Methods 196: 51-59. All extraction buffers also contained protease and phosphatase inhibitor cocktail (Roche Diagnostics, Basel, Switzerland). Snap frozen tissue is homogenized in 15 volumes (w/v) of TBS homogenization buffer and centrifuged at 100,000×g for 1 h at 4° C. using a Type 70 Ti rotor in an Optima™ L-80XP Ultracentrifuge (Beckman Coulter, Fla., USA). The TBS-soluble fraction is aliquoted, frozen in liquid nitrogen and stored at −80° C. The pellets are resuspended in 15 volumes of TBSX and kept on ice for 30 minutes, followed by a second centrifugation at 100,000×g for 1 hour at 4° C. The TBSX soluble fraction is aliquoted, frozen and stored as for the TBS fraction. The TBSX-insoluble pellet is resuspended in 2 mL of 70% FA and centrifuged at 100,000×g at 4° C. for 1 hour. The FA extracts are neutralized by the addition of 20 volumes of 1 M Tris pH 11, aliquoted and stored at −80° C. Total protein content in TBS- and TBSX-extracts is determined via BCA assay. […]
The levels of intracellular Aβ1-40 and Aβ1-42 are quantified by using a sandwich ELISA as previously described by Durairajan et al., 2011 with minor modification. Equal amounts of cell or brain lysates are used for Aβ quantification by sandwich ELISA. […]

## O=c1cc(-c2ccccc2)oc2cc(O)c(O)c(O)c12 [baicalein]
TBS fraction
  effect on TBS soluble Aβ levels in brain: did not significantly affect
TBSX fraction
  increase of Aβ1-40 in TBSX-soluble brain fraction: 35%
  increase of Aβ1-42 in TBSX-soluble brain fraction: 65%
Formic acid fraction
  increase of Aβ1-40 in FA brain fraction: 80%
  increase of Aβ1-42 in FA brain fraction: 32%
